From ChEMBL document CHEMBL3612037, “Design and synthesis of some new pyrazolyl-pyrazolines as potential anti-inflammatory, analgesic and antibacterial agents” (Eur J Med Chem, 2015)
Converted amounts (≈) assume the structure as drawn. The source made the active and inactive calls. The rule behind the calls is not given here.

Key:
[1] = system: Rattus norvegicus; test: Anti-inflammatory activity in Wistar rat assessed as inhibition of carrageenan-induced paw oedema at 20 mg/kg, po dosed 30 mins before carrageenan challenge and measured 120 mins post carrageenan challenge; assay type: functional
[2] = system: Rattus norvegicus; test: Anti-inflammatory activity in Wistar rat assessed as inhibition of carrageenan-induced paw oedema at 20 mg/kg, po dosed 30 mins before carrageenan challenge and measured 30 mins post carrageenan challenge; assay type: functional
[3] = system: Rattus norvegicus; test: Anti-inflammatory activity in Wistar rat assessed as inhibition of carrageenan-induced paw oedema at 20 mg/kg, po dosed 30 mins before carrageenan challenge and measured 60 mins post carrageenan challenge; assay type: functional
[4] = system: Staphylococcus; test: Antimicrobial activity against Staphylococcus citreus by agar dilution method; assay type: functional
[5] = Acute toxicity in Swiss mouse at 100 to 1000 mg/kg, po measured 48 hrs post dose; assay type: organism-based; conditions: in vivo
[6] = system: Aeromonas hydrophila; test: Antimicrobial activity against Aeromonas hydrophila at 20 uL of 1 mg/ml by disc diffusion assay; assay type: functional; conditions: for zone of inhibition at 1000 µg/mL: read-out: IZ
[7] = system: Rattus norvegicus; test: Anti-inflammatory activity in Wistar rat assessed as inhibition of carrageenan-induced paw oedema at 50 mg/kg, po dosed 30 mins before carrageenan challenge and measured 60 mins post carrageenan challenge; assay type: functional
[8] = system: Rattus norvegicus; test: Analgesic activity in Wistar rat assessed as tail flick latency time at 50 mg/kg, po measured 60 mins post dose by tail flick method (reference value: 3.47 +/- 0.1 secs); assay type: functional
[9] = system: Rattus norvegicus; test: Analgesic activity in Wistar rat assessed as tail flick latency time at 50 mg/kg, po measured 0 mins post dose by tail flick method (reference value: 3.5 +/- 0.8 secs); assay type: functional
[10] = system: Staphylococcus; test: Antimicrobial activity against Staphylococcus citreus at 20 uL of 1 mg/ml by disc diffusion assay; assay type: functional; conditions: read-out: IZ
[11] = system: Staphylococcus aureus; test: Antimicrobial activity against Staphylococcus aureus by agar dilution method; assay type: functional
[12] = system: Escherichia coli; test: Antimicrobial activity against Escherichia coli at 20 uL of 1 mg/ml by disc diffusion assay; assay type: functional; conditions: for zone of inhibition at 1000 µg/mL: read-out: IZ
[13] = system: Rattus norvegicus; test: Anti-inflammatory activity in Wistar rat assessed as inhibition of carrageenan-induced paw oedema at 50 mg/kg, po dosed 30 mins before carrageenan challenge and measured 30 mins post carrageenan challenge; assay type: functional
[14] = system: Mus musculus; test: Acute toxicity in Swiss mouse assessed as induction of depression incidence at 100 to 1000 mg/kg, po measured 48 hrs post dose; assay type: organism-based; conditions: in vivo
[15] = system: Mus musculus; test: Acute toxicity in Swiss mouse assessed as induction of diarrhoea incidence at 100 to 1000 mg/kg, po measured 48 hrs post dose; assay type: organism-based; conditions: in vivo
[16] = system: Rattus norvegicus; test: Analgesic activity in Wistar rat assessed as tail flick latency time at 50 mg/kg, po measured 90 mins post dose by tail flick method (reference value: 3.7 +/- 0.1 secs); assay type: functional
[17] = system: Rattus norvegicus; test: Analgesic activity in Wistar rat assessed as tail flick latency time at 50 mg/kg, po measured 30 mins post dose by tail flick method (reference value: 3.46 +/- 0.1 secs); assay type: functional
[18] = system: Rattus norvegicus; test: Anti-inflammatory activity in Wistar rat assessed as inhibition of carrageenan-induced paw oedema at 50 mg/kg, po dosed 30 mins before carrageenan challenge and measured 120 mins post carrageenan challenge; assay type: functional
[19] = system: Staphylococcus aureus; test: Antimicrobial activity against Staphylococcus aureus at 20 uL of 1 mg/ml by disc diffusion assay; assay type: functional; conditions: read-out: IZ
[20] = system: Escherichia coli; test: Antimicrobial activity against Escherichia coli by agar dilution method; assay type: functional
[21] = system: Aeromonas hydrophila; test: Antimicrobial activity against Aeromonas hydrophila by agar dilution method; assay type: functional
[22] = system: Rattus norvegicus; test: Analgesic activity in Wistar rat assessed as tail flick latency time at 20 mg/kg, po measured 0 mins post dose by tail flick method (reference value: 3.5 +/- 0.8 secs); assay type: functional
[23] = system: Rattus norvegicus; test: Analgesic activity in Wistar rat assessed as tail flick latency time at 20 mg/kg, po measured 30 mins post dose by tail flick method (reference value: 3.46 +/- 0.1 secs); assay type: functional
[24] = system: Rattus norvegicus; test: Analgesic activity in Wistar rat assessed as tail flick latency time at 20 mg/kg, po measured 90 mins post dose by tail flick method (reference value: 3.7 +/- 0.1 secs); assay type: functional
[25] = system: Rattus norvegicus; test: Analgesic activity in Wistar rat assessed as tail flick latency time at 20 mg/kg, po measured 60 mins post dose by tail flick method (reference value: 3.47 +/- 0.1 secs); assay type: functional

O=C(O)Cc1ccccc1Nc1c(Cl)cccc1Cl [DICLOFENAC SODIUM]
inhibition in vivo at 20 mg/kg [1]: 76.6%
inhibition in vivo at 20 mg/kg [2]: 46.8%
inhibition in vivo at 20 mg/kg [3]: 71%

Fc1ccc(C2=NN(c3ccccc3)C(c3cn(-c4ccccc4)nc3-c3ccc(Cl)c(Cl)c3)C2)cc1 (centres undefined)
MIC [4]: 200 µg/mL (≈ 379 µM)
LD50 at 48 h [5]: 500 mg/kg
inhibition zone (IZ) [6]: inactive
inhibition in vivo at 50 mg/kg [7]: 55.7%
Time [8]: 5.2 s
Time [9]: 3.1 s
zone of inhibition at 1000 µg/mL [10]: 37 mm
MIC [11]: 300 µg/mL (≈ 569 µM)
zone of inhibition at 1000 µg/mL [12]: 21 mm
inhibition in vivo at 50 mg/kg [13]: 44.7%
Activity [14]: Non-toxic
Activity [15]: Non-toxic
Time [16]: 4.8 s
Time [17]: 4.6 s
inhibition in vivo at 50 mg/kg [18]: 60.1%
zone of inhibition at 1000 µg/mL [19]: 31 mm

Clc1ccc(C2=NNC(c3cn(-c4ccccc4)nc3-c3ccc(Cl)c(Cl)c3)C2)cc1 (centres undefined)
LD50 at 48 h [5]: 500 mg/kg
zone of inhibition at 1000 µg/mL [6]: 15 mm
MIC [20]: 200 µg/mL (≈ 428 µM)
inhibition in vivo at 50 mg/kg [7]: 45.8%
Time [8]: 5.7 s
Time [9]: 3.6 s
zone of inhibition at 1000 µg/mL [10]: 18 mm
zone of inhibition at 1000 µg/mL [12]: 34 mm
inhibition in vivo at 50 mg/kg [13]: 33%
Activity [14]: Non-toxic
Activity [15]: Non-toxic
Time [16]: 4.6 s
Time [17]: 5.4 s
inhibition in vivo at 50 mg/kg [18]: 48.4%
zone of inhibition at 1000 µg/mL [19]: 21 mm

CCC(=O)N1N=C(c2ccc(F)cc2)CC1c1cn(-c2ccccc2)nc1-c1ccc(Cl)c(Cl)c1 (centres undefined)
LD50 at 48 h [5]: 500 mg/kg
zone of inhibition at 1000 µg/mL [6]: 28 mm
inhibition in vivo at 50 mg/kg [7]: 63.4%
Time [8]: 7.7 s
MIC [21]: 400 µg/mL (≈ 788 µM)
Time [9]: 3.4 s
zone of inhibition at 1000 µg/mL [10]: 15 mm
zone of inhibition at 1000 µg/mL [12]: 21 mm
inhibition in vivo at 50 mg/kg [13]: 51.1%
Activity [14]: Non-toxic
Activity [15]: Non-toxic
Time [16]: 7.2 s
Time [17]: 7.9 s
inhibition in vivo at 50 mg/kg [18]: 75.6%
zone of inhibition at 1000 µg/mL [19]: 23 mm

CC(C)=CCN1CC[C@]2(C)c3cc(O)ccc3C[C@H]1[C@H]2C [(+)-PENTAZOCINE]
Time [22]: 3.6 s
Time [23]: 7.4 s
Time [24]: 7.9 s
Time [25]: 7.7 s

CC1(C)S[C@@H]2[C@H](NC(=O)[C@H](N)c3ccccc3)C(=O)N2[C@H]1C(=O)O [AMPICILLIN]
MIC [4]: 200 µg/mL (≈ 572 µM)
MIC [20]: 100 µg/mL (≈ 286 µM)
MIC [21]: 200 µg/mL (≈ 572 µM)
MIC [11]: 300 µg/mL (≈ 859 µM)

CO/N=C(\C(=O)N[C@@H]1C(=O)N2C(C(=O)O)=C(COC(N)=O)CS[C@H]12)c1ccco1 [CEFUROXIME]
MIC [4]: 600 µg/mL (≈ 1410 µM)
MIC [20]: 500 µg/mL (≈ 1180 µM)
MIC [21]: 500 µg/mL (≈ 1180 µM)

Clc1ccc(C2=NN(c3ccccc3)C(c3cn(-c4ccccc4)nc3-c3ccc(Cl)c(Cl)c3)C2)cc1 (centres undefined)
LD50 at 48 h [5]: 500 mg/kg
zone of inhibition at 1000 µg/mL [6]: 28 mm
inhibition in vivo at 50 mg/kg [7]: 53.4%
Time [8]: 6.1 s
MIC [21]: 400 µg/mL (≈ 735 µM)
Time [9]: 4.3 s
zone of inhibition at 1000 µg/mL [10]: 19 mm
inhibition zone (IZ) [12]: inactive
inhibition in vivo at 50 mg/kg [13]: 45.7%
Activity [14]: Non-toxic
Activity [15]: Non-toxic
Time [16]: 4.9 s
Time [17]: 6.1 s
inhibition in vivo at 50 mg/kg [18]: 61.7%
zone of inhibition at 1000 µg/mL [19]: 15 mm

CN(C)[C@@H]1C(O)=C(C(N)=O)C(=O)[C@@]2(O)C(O)=C3C(=O)c4c(O)cccc4[C@@](C)(O)[C@H]3C[C@@H]12 [TETRACYCLINE]
MIC [4]: 300 µg/mL (≈ 675 µM)
MIC [20]: 400 µg/mL (≈ 900 µM)
MIC [21]: 400 µg/mL (≈ 900 µM)
MIC [11]: 300 µg/mL (≈ 675 µM)
